Measurements from US20110183978A1, “Phenylpyri(mi)dinylazoles” (Bayer CropScience AG, priority 2009, published 2011).
Where two headings read alike, the source gives them in different places.

Experiments:
Peronospora parasitica = test: Example A: in vivo test on Peronospora parasitica (downy mildew on white cabbage); conditions: Hyaloperonospora parasitica, 120 h, cabbage plants sprayed 24 hours before inoculation, scored after 5 days, read-out: % Wirkungsgrad
How it was run: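 Cabbage plants (Eminence) at cotyledon stage sprayed with aqueous compound suspension (acetone/Tween/DMSO, diluted with water), then inoculated 24 h later with P. parasitica spores at 50,000 spores/ml. After 5 days in moist atmosphere at ca. 20 °C, disease scored against untreated sprayed controls.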

Botrytis cinerea [1] = test: Example B: in vivo test on Botrytis cinerea (grey mould on cucumbers); conditions: cucumber plants sprayed 24 hours before inoculation, scored after 5-7 days, read-out: % Wirkungsgrad
How it was run: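 Cucumber plants (Vert petit de Paris) sprayed at cotyledon stage Z11 with aqueous suspension of compound (acetone/Tween/DMSO), then inoculated with spores from 15-day-old culture in gelatine/fructose nutrient solution. Kept 5-7 days at 15-11° C, then scored against untreated sprayed controls.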

Alternaria brassicae = test: Example C: in vivo test on Alternaria brassicae (leaf spot disease on radishes); conditions: 500 ppm; radish plants sprayed 24 hours before inoculation; scored after 6-7 days
Procedure: In Vivo Test on Alternaria Brassicae (Leaf Spot Disease on Radishes) An aqueous suspension of the active substance was prepared by homogenization of a mixture of acetone/Tween/dimethyl sulphoxide and subsequent dilution with water to the desired concentration. Radish plants (variety: Pernot) are sown in cultivation dishes on a peat-pozzolanic earth substrate (50/50) at 18-20° C. and sprayed at the cotyledon stage with the aqueous suspension described above. As a control, plants are sprayed with an aqueous solution with no active substance. After 24 hours, the plants are inoculated by spraying with an aqueous suspension of Alternaria brassicae spores (40,000 spores per ml). The spores are derived from a 12 to 13 day-old culture. The inoculated radish plants are incubated for 6-7 days at ca. 18° C. in a humid atmosphere. After 6-7 days they are scored in comparison with the control plants.

Pyrenophora teres = test: Example E: in vivo test on Pyrenophora teres (barley net blotch disease); conditions: Pyrenophora teres, 288 h, barley plants sprayed 24 hours before inoculation, scored after 12 days, read-out: % Wirkungsgrad
Procedure: In Vivo Test on Pyrenophora Teres (Barley Net Blotch Disease) An aqueous suspension of the active substance was prepared by homogenization of a mixture of acetone/Tween/dimethyl sulphoxide and subsequent dilution with water to the desired concentration. Barley plants (variety: Plaisant) are sown in cultivation dishes on a peat-pozzolanic earth substrate (50/50) at 12° C. and sprayed at the first-leaf stage (10 cm size) with the aqueous suspension described above. As a control, plants are sprayed with an aqueous solution with no active substance. After 24 hours the plants are inoculated by spraying with an aqueous suspension of Pyrenophora teres spores (12,000 spores per ml). The spores are derived from a 12 day-old culture. […] After 12 days they are scored in comparison with the control plants.

Botrytis cinerea [2] = test: Example P: in vivo test on Botrytis cinerea (gray mould on bean/protective); conditions: 48 h, bean, protective, 250 ppm active substance, assessed 2 days after inoculation, read-out: % Wirkungsgrad (activity level)
How it was run: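 Protective test: young bean plants sprayed with the active substance preparation (emulsifier-based concentrate diluted in water) at the stated dosage. Once dry, each leaf received 2 agar pieces bearing Botrytis cinerea. Infection blotch size assessed 2 days after inoculation.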

Septoria tritici = test: Example R: in vivo test on Septoria tritici (leaf blotch in wheat/protective); conditions: Zymoseptoria tritici, 504 h, wheat, protective, 1000 ppm active substance, assessed 21 days after inoculation, read-out: % Wirkungsgrad (activity level)
How it was run: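 Protective test: young wheat plants sprayed with compound in N,N-dimethylacetamide/alkylaryl polyglycol ether emulsifier diluted in water, dried, then inoculated with Septoria tritici spore suspension. Disease assessed 21 days after inoculation.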

[3] = system: Fusarium nivale (var. majus); test: whole plant or invertebrate; type: in vivo; conditions: Microdochium nivale, in Triticum aestivum, 120 h, read-out: % Wirkungsgrad (activity level)
Pyricularia oryzae = test: whole plant or invertebrate; type: in vivo; conditions: 120 h, read-out: % Activity level
Rhizoctonia solani = test: Example W: in vivo test on Rhizoctonia solani (sheath blight in rice/protective); conditions: 96 h, rice, protective, 250 ppm active substance, assessed 4 days after inoculation, read-out: % Activity level
How it was run: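 Young rice plants sprayed protectively with compound in acetone/alkylaryl polyglycol ether emulsion diluted in water at stated dosage. Inoculated with R. solani hyphae one day later; disease assessed 4 days post-inoculation.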

Fusarium proliferatum = test: Example I: production of fumonisin FB1 by Fusarium proliferatum (microtitre plates); type: cell-based; conditions: 120 h
Fusarium graminearum = test: microbe, parasite or virus in culture; type: cell-based
Aspergillus parasiticus = test: microbe, parasite or virus in culture; type: cell-based; conditions: 168 h
[4] = Fusarium proliferatum growth, OD 620, 5 days, read-out: % Inhibition des Pilzwachstums bei 50 μM
[5] = Fusarium proliferatum, 5 days at 20° C., HPLC-MS/MS, read-out: % Inhibition der FB1 produktion bei 50 μM
[6] = 72 h, read-out: % Inhibition des Pilzwachstums bei 50 μM
[7] = 168 h, read-out: % Inhibition der DON/AcDON produktion bei 50 μM
[8] = 50 μM, 7 days at 20° C., read-out: Inhibition der Aflatoxin produktion bei 50 μM
[9] = read-out: % Inhibition des Pilzwachstums bei 50 μM

| Compound | pest or weed control at 500 ppm (Peronospora parasitica) [%] | pest or weed control at 500 ppm (Botrytis cinerea [1]) [%] | % Activity level (Alternaria brassicae) [%] | pest or weed control at 500 ppm (Pyrenophora teres) [%] | pest or weed control at 250 ppm (Botrytis cinerea [2]) [%] | pest or weed control at 1000 ppm (Septoria tritici) [%] | pest or weed control at 1000 ppm [3] [%] | pest or weed control at 250 ppm (Pyricularia oryzae) [%] | pest or weed control at 250 ppm (Rhizoctonia solani) [%] | inhibition at 50 µM (Fusarium proliferatum; [4]) [%] | inhibition at 50 µM (Fusarium proliferatum; [5]) [%] | inhibition at 50 µM (Fusarium graminearum; [6]) [%] | inhibition at 50 µM (Fusarium graminearum; [7]) [%] | inhibition at 50 µM (Aspergillus parasiticus; [8]) [%] | inhibition at 50 µM (Aspergillus parasiticus; [9]) [%] |
| --- | --- | --- | --- | --- | --- | --- | --- | --- | --- | --- | --- | --- | --- | --- | --- |
| CC(C)Cn1cc(-c2ccncc2)c(-c2ccc(F)cc2)n1 [Compound 1] | 100 | 100 | 94 | 96 | 99 | 100 | 92 | 80 | 100 |  |  |  |  |  |  |
| CC(C)C(=O)Nc1cc(-c2cn(C(C)C)nc2-c2ccc(F)cc2)ccn1 [Compound 84] | 100 | 100 | 75 |  | 99 | 100 | 100 | 85 | 100 | 88 | 100 | 92 | 99 | 100 | 98 |
| CCC(=O)Nc1cc(-c2cn(C(C)C)nc2-c2ccc(F)cc2)ccn1 [Compound 85] | 100 | 100 |  | 75 | 100 | 100 | 100 | 80 | 97 | 95 | 100 | 100 | 99 | 100 | 98 |
| CC(C)n1cc(-c2ccnc(NC(=O)C3CC3)c2)c(-c2ccc(F)cc2)n1 [Compound 86] | 100 | 100 | 75 | 81 | 100 | 100 | 100 | 93 | 100 | 96 | 100 | 94 | 98 | 100 | 97 |
